Experimental findings from patent publication US11149017B2, “Solid state forms of apalutamide” (WATSON LABORATORIES INC., priority 2016, dated 2021) are described below.

The nature of data set [1]: Solubility Study (aqueous buffers, dissolution apparatus, LC analysis). In kind it is physicochemical. To be noted: compared to other crystalline forms of Apalutamide, e.g. crystalline form B. How it is done: Solubility of Apalutamide was checked using Dissolution apparatus (Lab India D8000) at 37 deg.
Buffers pH. 1.2, 4.5 and 6.8 were prepared as per the USP 36 Solutions/Buffer Solutions 1209.
About 500 mg of Apalutamide were added to the 100 mL buffer (pH 1.2, 4.5 and 6.8) in individual flasks to obtain saturated suspension and the suspension was stirred with 250 rpm for 24 hours. Suspension was observed though out stirring period. Samples were drawn at different intervals on completion of 15 mins, 1 hrs, 4 hrs and 24 hrs from each flask and filtered through 0.45μ PTFE filter; each solution was analyzed for Apalutamide content by liquid chromatography.

The nature of data set [2]: Bulk density and tapped (tap) density of powder. In kind it is physicochemical. To be noted: as compared to form A of Apalutamide. An excerpt:
Bulk density as used in the present application is meant the ratio between mass (weight) and bulk volume for the powder blend. Tapped (tap) density is the maximum packing density of a powder (or blend of powders) achieved under the influence of well defined, externally applied forces. The minimum packed volume thus achieved depends on a number of factors including particle size distribution, true density, particle shape and cohesiveness due to surface forces including moisture. Therefore, the tap density of a material can be used to predict both its flow properties and its compressibility. These two parameters are important in the overall tableting process—which requires that loose powders be compacted into a durable solid form with the correct mechanical strength, porosity and dissolution characteristics—and in capsule filling performance.

The structures appear in SMILES notation.

`CNC(=O)c1ccc(N2C(=S)N(c3cnc(C#N)c(C(F)(F)F)c3)C(=O)C23CCC3)cc1F` [form T11, Apalutamide]: in data set [1], the aqueous solubility result is “higher aqueous solubility”.
`CNC(=O)c1ccc(N2C(=S)N(c3cnc(C#N)c(C(F)(F)F)c3)C(=O)C23CCC3)cc1F` [form T13, Apalutamide]: in data set [2], the bulk density entry is on record as “higher bulk density” and the tap density result is “higher tap density”.
